Earlier results on one compound are cited in patent US20110318267A1, “PH-RESPONSIVE NANOSTRUCTURES” (PRESIDENT AND FELLOWS OF HARVARD COLLEGE, priority 2008, published 2011).

The structures appear in SMILES notation.

As for `C=C(C)C(=O)OCCN(C)C` [DMAEMA, dimethylaminoethyl methacrylate], the pKa (in general, the pH at which an ionisable group is half protonated) is 7.5.
